{"source": "patent US10759839B2", "about": "“Cell-penetrating peptide” (NEOREGEN BIOTECH, priority 2016, dated 2020)", "key": {"human-derived MSCs": {"system": "human-derived MSCs", "test": "Fluorescence microscopy of peptide entry into cells (FIG. 2)", "type": "cell-based", "settings": "1 μM, 30 minutes, medium containing 10% serum, heparin washing, trypsin", "description": "An experiment was conducted in a medium containing 10% serum, and after treatment for 30 minutes at a concentration of 1 μM, fluorescent peptides adhered to the cell surface were removed using a heparin washing method, and then the cell was separated therefrom by treatment with trypsin. FIG. 2 is photographs of cells taken by the fluorescence microscope after separation."}, "NIH3T3 fibroblast": {"system": "NIH3T3 fibroblast", "test": "Cell penetration efficiency of FITC-peptides, heparin and trypsin washing, FACS (FIG. 6)", "type": "cell-based", "settings": "1 μM", "source_text": "FIG. 6 is a graph showing results of comparing the cell penetration efficiencies of Ara-27, ara-20, R8-Ara-19 and Ara-8 cell-penetrating peptides in a NIH3T3 fibroblast.\n(§1) In order to confirm the cell penetration efficiency of each cell-penetrating peptide, fluorescein isothiocyanate (FITC, fluorescent material), which fluoresces each peptide, was adhered to each peptide, then penetration efficiencies thereof were examined.\nWhen measuring the cell penetration efficiency, in order to remove each cell-penetrating peptide which may be adhered to the cell membrane surface, a Heparin & Trypsin washing method used in the Kaplan group was applied thereto [Kaplan I M, Wadia J S, Dowdy S F (2005) Cationic TAT peptide transduction domain enters cells by macropinocytosis. J Controlled release 102: 247-253). In summary, in the experiments to be described below, each cell-penetrating peptide was put into a cell growth medium at a concentration of 1 μM, incubated for 30 minutes, and then the cells were washed 3 times with Heparin, followed by separating the cells with trypsin to perform a FACS analysis.\nNext, the cell penetration efficiencies of Ara-27 and the cell-penetrating peptides including amino acid sequences of SEQ ID NO: 1 (Ara-20), SEQ ID NO: 3 (R8-Ara-19), and SEQ ID NO: 11 (Ara-8) of the examples in a NIH3T3 fibroblast were compared."}, "[1]": {"system": "Human mesenchymal stem cells (human MSCs)", "test": "Confocal microscopy of intracellular localisation with membrane marker FM-64 (FIG. 3)", "type": "cell-based", "source_text": "Further, in order to determine whether the Ara-27 cell-penetrating peptide is actually present in intracellular nuclei or cytoplasm, the Ara-27 peptide was fluorescently treated, and then analyzed using a confocal microscope. Human mesenchymal stem cells (human MSCs) were placed in a DMEM cell culture medium containing 10% FBS in a 6-well plate. […] Next, a membrane marker (FM-64) was used to examine whether the peptides are actually present inside the cell membrane. The cells were removed with trypsin to allow reagents to be inserted into the cell membrane, and the reagents were treated to perform the analysis. At this time, it can be confirmed that most of peptides were present in cytoplasmic parts inside the cell membranes, and some of the peptides were also present in the nucleus (FIG. 3)."}, "[2]": {"system": "mesenchymal stem cell (MSC)", "test": "Cell penetration of FITC-labelled peptide by concentration, FACS fluorescence intensity (FIG. 1)", "type": "cell-based, human", "settings": "1 hour", "source_text": "FIG. 1 is a graph showing that a cell membrane penetration efficiency of Ara-27 cell-penetrating peptide is increased in proportion to a concentration in mesenchymal stem cell (MSC) derived from a human body. In the graph, a Y axis represents a fluorescence intensity, which is an index indicating an amount of introduced peptides per unit cell.\nas §1\nWhen measuring the cell penetration efficiency, in order to remove each cell-penetrating peptide which may be adhered to the cell membrane surface, a Heparin & Trypsin washing method used in the Kaplan group was applied thereto [Kaplan I M, Wadia J S, Dowdy S F (2005) Cationic TAT peptide transduction domain enters cells by macropinocytosis. J Controlled release 102: 247-253). […]\nIn the mesenchymal stem cell (MSC), an amount of the cell-penetrating peptide (Ara-27) including an amino acid sequence of SEQ ID NO: 2 into the cell was determined for each concentration."}, "NIH3T3 cell line": {"system": "NIH3T3 cell line", "test": "Cell penetration efficiency of FITC-labelled p53C, Tat-Ara-19 and ICT-53 (FIG. 7)", "type": "cell-based", "settings": "1 μM, 1 hour", "description": "FIG. 7 is a graph showing results of comparing the cell penetration efficiencies of p53C, Tat-ara-19 and ICT-53 peptides.\nA p53C peptide having 22 amino acid sequences and Tat-Ara-19 peptide, as well as the ICT-53 peptide, in which the p53C peptide is fused to the Tat-Ara-19 peptide, were synthesized, then fluorescein isothiocyanate (FITC, fluorescent material) was adhered to the C-terminus thereof so as to fluoresce. These peptides were used to examine the cell penetration efficiency for 1 hour at a concentration of 1 μM in a NIH3T3 cell line. […] In this experiment, the penetration efficiency in a situation including serum was also examined."}, "U2OS cancer cell line": {"system": "U2OS cancer cell line", "test": "Anti-cancer effect of purified ICT-53 peptide (FIGS. 9 and 10)", "type": "cell-based", "settings": "for each concentration"}}, "note": "“Also recorded” adds a separate entry of the source. Where no end group is shown, it is not given here."}
{"substance": "Ara-27: cell-penetrating peptide including an amino acid sequence of SEQ ID NO: 2, Arabidopsis thaliana-derived (RNQRKTVRCFRCRQAGHWISDCRLKSK; Ara-27)", "values": [{"measurement": "peptides that entered the cells, seen by fluorescence microscope", "setting": "human-derived MSCs", "value": "found across all the cells; also recorded: high fluorescence intensity"}, {"measurement": "efficiency of penetrance into the cell", "setting": "NIH3T3 fibroblast; within 30 minutes, environment including serum", "value": "≥ 90", "unit": "%"}, {"measurement": "location of the peptide in the cell", "setting": "[1]; 2 μM, DMEM containing 10% FBS", "value": "most of the Ara-27 peptides were present in the cytoplasm"}, {"measurement": "persistence of the peptide in the cell", "setting": "[1]; 5 μM, 18 hours after penetration", "value": "stably exist therein"}, {"measurement": "location of the peptide in the cell", "setting": "[1]; 5 μM, 18 hours after penetration, membrane marker", "value": "not only in the cytoplasm but also in the nucleus"}, {"measurement": "amount of the peptide introduced per unit cell (fluorescence intensity)", "setting": "[2]; for each concentration", "value": "increased in proportion to the concentration"}]}
{"substance": "p53C: p53C peptide (SEQ ID NO: 5), peptide of a C-terminal region of a p53 protein, 22 amino acids (GSRAHSSHLKSKKGQSTSRHKK; p53C) [reference compound]", "values": [{"measurement": "cell penetration efficiency (in words)", "setting": "NIH3T3 cell line", "value": "did not penetrate into the cell"}]}
{"substance": "RKKRRQRRCFRCRQAGHWISDCRLKSKGSRAHSSHLKSKKGQSTSRHKK (cysteines drawn unpaired) [ICT-53]", "values": [{"measurement": "anti-cancer effect, dependence on concentration", "setting": "U2OS cancer cell line", "value": "in proportion to the concentration"}, {"measurement": "cell penetration efficiency (in words)", "setting": "NIH3T3 cell line", "value": "high efficiency"}]}
{"substance": "Tat-Ara-19: cell-penetrating peptide including an amino acid sequence of SEQ ID NO: 4 (RKKRRQRRCFRCRQAGHWISDCRLKSK; Tat-Ara-19)", "values": [{"measurement": "cell penetration efficiency (in words)", "setting": "NIH3T3 cell line", "value": "high efficiency"}]}
{"substance": "Tat-PTD: Tat-PTD (SEQ ID NO: 12), a well-known cell-penetrating peptide, used as control group (RKKRRQRR; Tat-PTD) [reference compound]", "values": [{"measurement": "peptides that entered the cells, seen by fluorescence microscope", "setting": "human-derived MSCs", "value": "very rarely found"}, {"measurement": "cell penetration efficiency (in words)", "setting": "NIH3T3 fibroblast; NIH3T3 fibroblast, 30 minutes", "value": "very low level"}, {"measurement": "amount of the peptide introduced per unit cell (fluorescence intensity)", "setting": "[2]; even at 5 μM", "value": "remarkably low"}]}
